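Step 1: Grow cells in 96-well plates. Step 2: Expose to compound for 48 hours at 5 concentrations. Step 3: Interpolate endpoints linearly; if unreached, use highest concentration. GI50 marks 50% less growth.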 The source made the active and inactive calls. Cut-off read from the data, not from the text of the source: active = GI50 up to about 1.1 µM and inactive = higher.
Experiments:
Assay in all cases: NCI-60 cell line screen, 48 h
SN12C = test system: SN12C
TK-10 = test system: TK-10
HOP-92 = test system: HOP-92
OVCAR-4 = test system: OVCAR-4
SNB-75 = test system: SNB-75
EKVX = test system: EKVX
LOX IMVI = test system: LOX IMVI
786-0 = test system: 786-0
NCI-H226 = test system: NCI-H226
CAKI-1 = test system: CAKI-1
K562 = test system: K562
DMS-273 = test system: DMS-273
UO-31 = test system: UO-31
UACC-257 = test system: UACC-257
SF-268 = test system: SF-268
OVCAR-3 = test system: OVCAR-3
Hs-578T = test system: Hs-578T
MCF7 = test system: MCF7
T47D = test system: T47D

For Oc1cc(-c2ccc3c(c2)OCO3)nc2cc3c(cc12)OCO3, the GI50 (SN12C) was 39.5 µM (inactive), the GI50 (TK-10) was 63.8 µM (inactive) and the GI50 (HOP-92) was > 100 µM (inactive). The GI50 (OVCAR-4) was > 100 µM (inactive), the GI50 (SNB-75) was 1.01 µM (active) and the GI50 (EKVX) was > 100 µM (inactive). The GI50 (LOX IMVI) was 57.8 µM (inactive), the GI50 (786-0) was 34.9 µM (inactive) and the GI50 (NCI-H226) was 34.4 µM (inactive). For the same compound, the GI50 (CAKI-1) was 64.4 µM (inactive), the GI50 (K562) was 28.8 µM (inactive) and the GI50 (DMS-273) was 21.3 µM (inactive). For the same compound, the GI50 (UO-31) was > 100 µM (inactive).

In the case of C=CCNC(=O)NCCCCC(NC(C)=O)C(=O)NCc1ccccc1 (centres undefined), the GI50 (SN12C) is reported as > 100 µM (inactive), the GI50 (TK-10) is reported as > 100 µM (inactive) and the GI50 (HOP-92) is reported as > 100 µM (inactive). For the same compound, the GI50 (OVCAR-4) was > 100 µM (inactive), the GI50 (SNB-75) was > 100 µM (inactive) and the GI50 (EKVX) was > 100 µM (inactive). The GI50 (UACC-257) was > 100 µM (inactive), the GI50 (LOX IMVI) was > 100 µM (inactive) and the GI50 (SF-268) was > 100 µM (inactive). For the same compound, the GI50 (786-0) was > 100 µM (inactive), the GI50 (NCI-H226) was > 100 µM (inactive) and the GI50 (OVCAR-3) was > 100 µM (inactive). For the same compound, the GI50 (CAKI-1) was > 100 µM (inactive), the GI50 (K562) was > 100 µM (inactive) and the GI50 (DMS-273) was > 100 µM (inactive). The GI50 (UO-31) was > 100 µM (inactive).

Cc1ccc(C(=O)N2CCN(C(=O)c3ccc(C)cc3)c3ccccc32)cc1 was tested, and the GI50 (SN12C) was 6.92 µM (inactive), the GI50 (TK-10) was 10 µM (inactive) and the GI50 (HOP-92) was 16.4 µM (inactive). The GI50 (OVCAR-4) was 11.4 µM (inactive), the GI50 (Hs-578T) was 2.47 µM (inactive) and the GI50 (SNB-75) was 4.68 µM (inactive). For the same compound, the GI50 (EKVX) was 20.2 µM (inactive), the GI50 (UACC-257) was 4.56 µM (inactive) and the GI50 (LOX IMVI) was 6.44 µM (inactive). For the same compound, the GI50 (SF-268) was 6.85 µM (inactive), the GI50 (786-0) was 3.41 µM (inactive) and the GI50 (OVCAR-3) was 2.74 µM (inactive). For the same compound, the GI50 (CAKI-1) was 7 µM (inactive), the GI50 (MCF7) was 2.48 µM (inactive) and the GI50 (K562) was 2.55 µM (inactive). The GI50 (T47D) was 6.43 µM (inactive), the GI50 (DMS-273) was 2.05 µM (inactive) and the GI50 (UO-31) was 4.76 µM (inactive).

With CCC1(O)C(=O)OCc2c1cc1n(c2=O)Cc2c-1nc1ccccc1c2OC (centres undefined) the GI50 (SN12C) was < 0.01 µM (active), the GI50 (TK-10) was 3.52 µM (inactive) and the GI50 (HOP-92) was 0.106 µM (active). The GI50 (OVCAR-4) was 0.187 µM (active), the GI50 (SNB-75) was < 0.0156 µM (active) and the GI50 (EKVX) was 2.91 µM (inactive). For the same compound, the GI50 (UACC-257) was 0.0575 µM (active), the GI50 (LOX IMVI) was < 0.01 µM (active) and the GI50 (SF-268) was < 0.01 µM (active). The GI50 (786-0) was < 0.01 µM (active), the GI50 (NCI-H226) was < 0.01 µM (active) and the GI50 (OVCAR-3) was 0.257 µM (active). The GI50 (CAKI-1) was < 0.01 µM (active), the GI50 (K562) was < 0.0305 µM (active) and the GI50 (DMS-273) was < 0.01 µM (active). For the same compound, the GI50 (UO-31) was < 0.0221 µM (active).

For Cc1ccc(C(=O)NCCN(C)C)c2nc3ccccc3cc12, the GI50 (SN12C) was 0.809 µM (active), the GI50 (TK-10) was 1.54 µM (inactive) and the GI50 (HOP-92) was 14 µM (inactive). For the same compound, the GI50 (OVCAR-4) was 3.74 µM (inactive), the GI50 (SNB-75) was 1.52 µM (inactive) and the GI50 (EKVX) was 1.73 µM (inactive). For the same compound, the GI50 (UACC-257) was 1.3 µM (inactive), the GI50 (LOX IMVI) was 0.561 µM (active) and the GI50 (786-0) was 2.32 µM (inactive). The GI50 (NCI-H226) was 1.15 µM (inactive), the GI50 (OVCAR-3) was 1.32 µM (inactive) and the GI50 (CAKI-1) was 1.79 µM (inactive). For the same compound, the GI50 (K562) was 1.4 µM (inactive), the GI50 (DMS-273) was 0.467 µM (active) and the GI50 (UO-31) was 2.49 µM (inactive).

N#C/C(=C1\SCC(=O)N1c1ccccc1)c1nc2ccccc2[nH]1 was tested, and the GI50 (SN12C) was > 100 µM (inactive), the GI50 (TK-10) was > 100 µM (inactive) and the GI50 (HOP-92) was > 100 µM (inactive). The GI50 (OVCAR-4) was > 100 µM (inactive), the GI50 (SNB-75) was > 100 µM (inactive) and the GI50 (EKVX) was > 100 µM (inactive). For the same compound, the GI50 (UACC-257) was > 100 µM (inactive), the GI50 (LOX IMVI) was > 100 µM (inactive) and the GI50 (SF-268) was > 100 µM (inactive). The GI50 (786-0) was > 100 µM (inactive), the GI50 (NCI-H226) was > 100 µM (inactive) and the GI50 (OVCAR-3) was > 100 µM (inactive). For the same compound, the GI50 (CAKI-1) was > 100 µM (inactive), the GI50 (K562) was > 100 µM (inactive) and the GI50 (DMS-273) was > 100 µM (inactive). For the same compound, the GI50 (UO-31) was > 100 µM (inactive).

With Cc1ccc(NC(=O)CC/C(CC(=O)C(C)(C)C)=N\NC(=O)C[n+]2ccccc2)cc1C the GI50 (SN12C) was > 100 µM (inactive), the GI50 (TK-10) was > 100 µM (inactive) and the GI50 (HOP-92) was > 100 µM (inactive). The GI50 (OVCAR-4) was > 100 µM (inactive), the GI50 (SNB-75) was > 100 µM (inactive) and the GI50 (EKVX) was > 100 µM (inactive). The GI50 (UACC-257) was > 100 µM (inactive), the GI50 (LOX IMVI) was 99.8 µM (inactive) and the GI50 (SF-268) was > 100 µM (inactive). The GI50 (786-0) was > 100 µM (inactive), the GI50 (NCI-H226) was > 100 µM (inactive) and the GI50 (OVCAR-3) was > 100 µM (inactive). For the same compound, the GI50 (CAKI-1) was > 100 µM (inactive), the GI50 (K562) was 46.9 µM (inactive) and the GI50 (DMS-273) was > 100 µM (inactive). The GI50 (UO-31) was > 100 µM (inactive).

With O=C(O)CNS(=O)(=O)c1ccc(NC(=O)CI)cc1 the GI50 (SN12C) was 32.5 µM (inactive), the GI50 (TK-10) was 63 µM (inactive) and the GI50 (HOP-92) was 19.4 µM (inactive). The GI50 (OVCAR-4) was 18 µM (inactive), the GI50 (SNB-75) was 17.1 µM (inactive) and the GI50 (EKVX) was 32.7 µM (inactive). For the same compound, the GI50 (UACC-257) was 42.5 µM (inactive), the GI50 (LOX IMVI) was 19 µM (inactive) and the GI50 (SF-268) was 18.8 µM (inactive). For the same compound, the GI50 (786-0) was 14.9 µM (inactive), the GI50 (NCI-H226) was > 100 µM (inactive) and the GI50 (OVCAR-3) was 24 µM (inactive). For the same compound, the GI50 (CAKI-1) was 40.7 µM (inactive), the GI50 (K562) was 10.2 µM (inactive) and the GI50 (DMS-273) was 17.7 µM (inactive). For the same compound, the GI50 (UO-31) was 20 µM (inactive).

With COP(=O)(OC)C(NC(=O)C(F)(F)F)(c1ccccc1)C(F)(F)F (centres undefined) the GI50 (SN12C) was > 100 µM (inactive), the GI50 (TK-10) was > 100 µM (inactive) and the GI50 (HOP-92) was > 100 µM (inactive). The GI50 (OVCAR-4) was > 100 µM (inactive), the GI50 (SNB-75) was > 100 µM (inactive) and the GI50 (EKVX) was > 100 µM (inactive). For the same compound, the GI50 (UACC-257) was > 100 µM (inactive), the GI50 (LOX IMVI) was > 100 µM (inactive) and the GI50 (SF-268) was > 100 µM (inactive). The GI50 (786-0) was > 100 µM (inactive), the GI50 (NCI-H226) was > 100 µM (inactive) and the GI50 (OVCAR-3) was > 100 µM (inactive). The GI50 (CAKI-1) was > 100 µM (inactive), the GI50 (K562) was > 100 µM (inactive) and the GI50 (DMS-273) was > 100 µM (inactive). For the same compound, the GI50 (UO-31) was > 100 µM (inactive).

COC1O[C@@H]2COC(C)(C)O[C@@H]2C(=O)N1Nc1ccc([N+](=O)[O-])cc1 (some centres undefined) was tested, and the GI50 (SN12C) was > 100 µM (inactive), the GI50 (TK-10) was > 100 µM (inactive) and the GI50 (HOP-92) was > 100 µM (inactive). For the same compound, the GI50 (OVCAR-4) was > 100 µM (inactive), the GI50 (SNB-75) was > 100 µM (inactive) and the GI50 (EKVX) was > 100 µM (inactive). The GI50 (UACC-257) was > 100 µM (inactive), the GI50 (LOX IMVI) was 31.9 µM (inactive) and the GI50 (SF-268) was > 100 µM (inactive). For the same compound, the GI50 (786-0) was 34.2 µM (inactive), the GI50 (NCI-H226) was > 100 µM (inactive) and the GI50 (OVCAR-3) was > 100 µM (inactive). For the same compound, the GI50 (CAKI-1) was > 100 µM (inactive), the GI50 (K562) was > 100 µM (inactive) and the GI50 (DMS-273) was > 100 µM (inactive). For the same compound, the GI50 (UO-31) was > 100 µM (inactive).

CC(C)(O)C(O)COc1c2c(cc3oc(=O)ccc13)OCO2 (centres undefined) was tested, and the GI50 (SN12C) was > 100 µM (inactive), the GI50 (TK-10) was > 100 µM (inactive) and the GI50 (HOP-92) was > 100 µM (inactive). For the same compound, the GI50 (OVCAR-4) was > 100 µM (inactive), the GI50 (SNB-75) was 71.9 µM (inactive) and the GI50 (EKVX) was > 100 µM (inactive). The GI50 (UACC-257) was > 100 µM (inactive), the GI50 (LOX IMVI) was > 100 µM (inactive) and the GI50 (SF-268) was > 100 µM (inactive). For the same compound, the GI50 (786-0) was > 100 µM (inactive), the GI50 (NCI-H226) was > 100 µM (inactive) and the GI50 (OVCAR-3) was > 100 µM (inactive). For the same compound, the GI50 (CAKI-1) was > 100 µM (inactive), the GI50 (K562) was > 100 µM (inactive) and the GI50 (DMS-273) was > 100 µM (inactive). For the same compound, the GI50 (UO-31) was > 100 µM (inactive).

— ChEMBL document CHEMBL1201862, “PubChem BioAssay data set” (2004)
